Laboratory results as given in patent US10780067B2, “Endoxifen for local transdermal therapy to the breast” (Northwestern University, priority 2016, dated 2020).

Columns and labels:
[1] = oral-T vs 4-OHT gel 2 mg daily, 2-3 weeks; cited from earlier work
[2] = test system: von Willebrand factor; test: Plasma von Willebrand factor immuno-turbidimetric assay, presurgical trial; type: in vivo, human; details: mean ± SD
Protocol: (§1) Plasma samples collected with anticoagulant K3-EDTA were used for human IGF-1 and SHBG assays, and coagulation protein assays (factor VIII, factor IX, von Willebrand factor, and protein S)[23]. The human IGF-1 and SHBG assays were performed with Quantikine Enzyme-linked immunosorbent assay (ELISA) Kits (R&D Systems, Cat # DG100 for IGF-1, and Cat # DSHBGO for SHBG assay). The lower limit of detection was 56 pg/ml, and 5 pmol/L; % CV values were 4.3 and 5.6 for IGF-1, and SHBG assay, respectively. Factor VIII, and factor IX were determined with VisuLize™ antigen ELISA kits (Affinity Biologicals Inc.). von Willebrand factor was measured with immune-turbidimetric assay (Diagnostica Stago Inc. Cat #00518) by STAR analyzer, and total protein S was assayed with an ELISA kit (REAADSR Inc.)

[3] = test system: IGF-1; test: Plasma IGF-1 ELISA, presurgical trial; type: in vivo, human; details: mean ± SD
Protocol: as §1

[4] = BESS quality of life questionnaire and CTCAE adverse events, presurgical trial; type: in vivo, human
Text: All participants provided informed consent. Baseline assessments included a history and physical, explanation of gel application, completion of the Breast Cancer Prevention Trial Eight Symptom Scale (BESS) questionnaire, collection of a venous blood sample, and collection of nipple aspirate fluid (NAF) from NAF yielders. […] Treatment began within 5 days post-randomization and ended on the day prior to surgical resection. Participants were instructed to apply the gel to the entire skin envelope of each breast each morning, after a shower. Duration of therapy was 6-10 weeks. Compliance was assessed through participant diaries, counts of returned pills and of returned gel canisters. Participants who took at least 80% of the prescribed dose were considered compliant.
The BESS Questionnaire was repeated at day 15 and at the end of treatment (1 day before surgery or day of surgery), and the post-surgical visit (approximately 7-14 days after surgery).
For continuous variables in the immunochemistry, drug concentration, and blood coagulation data, means and standard deviations are reported; the significance of changes between baseline and post-treatment within groups were evaluated with the paired t-test, and differences between treatment groups assessed using the unpaired t-test. For categorized demographic data, we examined the association of these variables with treatment group via Fisher's exact test. For the analysis of quality of life, the 33 symptoms in the BESS Questionnaire were divided into eight clusters as described by Cella et. al.. The mean score within each cluster was used to evaluate significance of changes from baseline to posttreatment within groups as well as the differences between treatment groups using the Wilcoxon signed-rank test.

[5] = test system: SHBG; test: Plasma SHBG ELISA, presurgical trial; type: in vivo, human; details: mean ± SD
Protocol: as §1

[6] = test system: total protein S; test: Plasma total protein S ELISA, presurgical trial; type: in vivo, human; details: mean ± SD
Protocol: as §1

[7] = test system: factor VIII; test: Plasma factor VIII antigen ELISA, presurgical trial; type: in vivo, human; details: mean ± SD
Protocol: as §1

[8] = 28 days; cited from earlier work
[9] = Study 1: oral tamoxifen vs transdermal 4-OHT and endoxifen gel, mammary and plasma concentrations; details: for concentration at 6 weeks: athymic nude (Hsd:RHFoxn1^rnu/rnu), rat, oral, 3 mg/kg/day
Protocol: (Z) tamoxifen was prepared as 3 mg/mL in sesame oil. For transdermal gel formulations, 4-OHT (E:Z=50:50) (1 mg/mL), (Z) endoxifen (1 mg/mL), and telapristone (1.5 mg/mL) were prepared in 60% (v/v) ethanol-phosphate buffer containing 0.5% (v/v) oleic acid [13] with 1.5% (w/v) Klucel hydroxypropyl cellulose.
Athymic nude rats (Hsd:RHFoxn1^rnu/rnu, Harlan Laboratories, Inc.) were provided with standard laboratory food and water ad libitum. […] In the gel groups, animals were anesthetized with isoflurane inhalation; the skin surface of axillary mammary glands was cleaned with alcohol swabs and air-dried; 0.1 mL drug gel was applied using a template with an exposed ellipse (π×R1×R2=π1 cm×0.6 cm) around the no. 2 nipple on each side and allowed to dry (total of 1, 0.5 mg/kg/day on each side); animals wore jackets fitted over the forelegs, to prevent loss of gel through grooming.
In both studies, rats were euthanized after 6 weeks of treatment for blood and tissue collections. The treated skin area was cleansed with alcohol prior to dissection. Blood samples were collected from the heart. We collected the whole mammary glands (1 axillary and 1 inguinal) per animal and measured their drug concentrations separately.
The concentrations of all the drugs used in rats and humans were determined by liquid chromatography-tandem mass spectroscopy (API 3000; AB SCIEX, Foster City, Calif., USA). […] The mobile phase was A: 0.1% formic acid in water (v/v) and B: 0.1% formic acid in acetonitrile (v/v). Details of sample processing and quantitation methods are described below. The lowest limits of quantification (LLOQ) were as follow: tamoxifen and N-desmethyl tamoxifen (NDT) (plasma 10 ng/mL; tissue 40 ng/g); 4-OHT and endoxifen (plasma 0.5 ng/mL; tissue 2 ng/g); telapristone and N-desmethyl telapristone (d-telapristone) (plasma 1 ng/mL; tissue 1.5 ng/g); and diclofenac (plasma 0.5 ng/mL; tissue 2 ng/g).
For preclinical studies, the summary statistics as medians and interquartile range (IQR) were reported by treatment group for each analyte obtained from plasma, axillary, and inguinal mammary glands. Concentration differences of each analyte between treatment groups and differences between mammary glands within each treatment group were assessed via the Wilcoxon rank-sum test, and the Wilcoxon signed rank-sum test, respectively.
(Z) tamoxifen and metabolites [(Z) NDT, (E) 4-OHT, and (Z) 4-OHT, (Z) endoxifen] were determined using LC-MS/MS (API 3000; AB SCIEX, Foster City, Calif.). A 100 μL aliquot of plasma was mixed with 200 μL of acetonitrile containing 1 ng each of the deuterated analogs of the analytes (TRC, Toronto, Canada). […]

CC/C(=C(\c1ccccc1)c1ccc(OCCN(C)C)cc1)c1ccccc1 [Tamoxifen, (Z)-tamoxifen]
median 4-OHT concentration in nontumor breast tissue (previous study) [1]: 2.0 ng/g | % vWF post-treatment ([2]; plasma after 6-10 weeks): 218.6 ± 134.6% | % vWF baseline ([2]; plasma before treatment): 167.4 ± 89.2% | % vWF Changes from baseline ([2]; plasma): 51.2 ± 71.0% | IGF-1 post-treatment ([3]; plasma after 6-10 weeks): 50.3 ± 9.7 ng/mL | IGF-1 baseline ([3]; plasma before treatment): 59.0 ± 11.4 ng/mL | IGF-1 Changes from baseline ([3]; plasma): -8.7 ± 8.3 ng/mL | BESS Vasomotor symptom cluster, baseline ([4]; hot flashes, night sweats, cold sweats, mean score ± SD): 0.33 ± 0.45 | BESS Bladder symptom cluster, Changes from baseline ([4]; mean score ± SD): 0.11 ± 0.49 | BESS Bladder symptom cluster, baseline ([4]; mean score ± SD): 0.14 ± 0.36 | BESS Bladder symptom cluster, post-treatment ([4]; mean score ± SD): 0.25 ± 0.33 | BESS Body Image symptom cluster, Changes from baseline ([4]; mean score ± SD): −0.04 ± 0.87 | BESS Body Image symptom cluster, baseline ([4]; mean score ± SD): 0.68 ± 0.77 | BESS Body Image symptom cluster, post-treatment ([4]; mean score ± SD): 0.64 ± 0.89 | BESS Body pain symptom cluster, Changes from baseline ([4]; mean score ± SD): 0.43 ± 0.92 | BESS Body pain symptom cluster, baseline ([4]; mean score ± SD): 0.76 ± 1.12 | BESS Body pain symptom cluster, post-treatment ([4]; mean score ± SD): 1.19 ± 1.11 | BESS Cognitive symptom cluster, Changes from baseline ([4]; mean score ± SD): 0.10 ± 0.86 | BESS Cognitive symptom cluster, baseline ([4]; mean score ± SD): 0.62 ± 0.61 | BESS Cognitive symptom cluster, post-treatment ([4]; mean score ± SD): 0.71 ± 1.18 | BESS Gastrointestinal symptom cluster, Changes from baseline ([4]; mean score ± SD): −0.10 ± 0.24 | BESS Gastrointestinal symptom cluster, baseline ([4]; mean score ± SD): 0.12 ± 0.31 | BESS Gastrointestinal symptom cluster, post-treatment ([4]; mean score ± SD): 0.02 ± 0.09 | BESS Sexual problems symptom cluster, Changes from baseline ([4]; mean score ± SD): −0.21 ± 0.54 | BESS Sexual problems symptom cluster, baseline ([4]; mean score ± SD): 0.32 ± 0.72 | BESS Sexual problems symptom cluster, post-treatment ([4]; mean score ± SD): 0.11 ± 0.40 | BESS Vaginal symptom cluster, Changes from baseline ([4]; mean score ± SD): 0.07 ± 0.19 | BESS Vaginal symptom cluster, baseline ([4]; mean score ± SD): 0.00 ± 0.00 | BESS Vaginal symptom cluster, post-treatment ([4]; mean score ± SD): 0.07 ± 0.19 | BESS Vasomotor symptom cluster, Changes from baseline ([4]; mean score ± SD): 0.55 ± 1.05 | BESS Vasomotor symptom cluster, post-treatment ([4]; mean score ± SD): 0.88 ± 1.26 | BESS Vaginal symptom cluster, baseline ([4]; mean score ± SD, listed as oral-T): 0.00 | serious adverse events (CTCAE) ([4]; whole study): no serious adverse events | SHBG post-treatment ([5]; plasma after 6-10 weeks): 143.9 ± 69.0 ng/mL | SHBG baseline ([5]; plasma before treatment): 98.4 ± 45.0 ng/mL | SHBG Changes from baseline ([5]; plasma): 45.5 ± 40.2 ng/mL | % Total Protein S post-treatment ([6]; plasma after 6-10 weeks): 91.6 ± 12.2% | % Total Protein S baseline ([6]; plasma before treatment): 94.3 ± 8.9% | % Total Protein S Changes from baseline ([6]; plasma): −2.7 ± 9.3% | % Factor VIII post-treatment ([7]; plasma after 6-10 weeks): 168.7 ± 51.6% | % Factor VIII baseline ([7]; plasma before treatment): 157.1 ± 47.5% | % Factor VIII Changes from baseline ([7]; plasma): 11.6 ± 17.3% | ENX concentration in serum, oral TAM 1 mg daily [8]: 3 ng/mL | ENX concentration in serum, oral TAM 5 mg daily [8]: 9 ng/mL | ENX concentration in serum, oral TAM 20 mg daily [8]: 38 ng/mL | ENX concentration in tumor tissue, oral TAM 1 mg daily [8]: 31 ng/g | ENX concentration in tumor tissue, oral TAM 5 mg daily [8]: 80 ng/g | ENX concentration in tumor tissue, oral TAM 20 mg daily [8]: 340 ng/g | concentration at 6 weeks ([9]; axillary mammary gland): 44.2 ng/g | concentration at 6 weeks ([9]; inguinal mammary gland): 69.6 ng/g | concentration at 6 weeks ([9]; plasma): 8 ng/mL | deaths, weight loss, general health, skin irritation ([9]; rats, end of 6 week experiment): no deaths, no weight loss, and no skin irritation
